A short description of data set [1]: Acute toxicity (LD50, Behrens-Karber method). It is filed as in vivo, ICR mice. The conditions noted are these: mouse, in vivo, ip, mortality during 30 days. The procedure:
Test compounds, dissolved or suspended in 0.5% aqueous CMC, were each intraperitoneally administered to ICR mice in a dose of 0.1 ml per 10 g body weight. LD50 (mg/kg) value of each test compound was calculated from the mortality of mice during 30 days by the Behrens-Karber method.

The subject of data set [2] is Leukemia L1210. Briefly: Activity against Leukemia L1210, intraperitoneal, increase in life span of mice. The note with it: for ED (maximum ILS) / ED30: Mus musculus, L1210, ip, ip once a day for 5 successive days; for ED (maximum ILS): daily dosage giving maximum increase of life span, read-out: O.D. (optimum dosage); for ED30: daily dosage increasing average survival days by 30%, read-out: ILS30; for Survivors after 60 days / Max. ILS % / Therapeutic ratio TR: ip; for Survivors after 60 days: 6-membered group; for Max. ILS %: 60-day observation, versus control; for Therapeutic ratio TR: O.D./ILS30. It is filed as in vivo, female mice (BDF1 family). In outline: (§1)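 Female BDF1 mice (20 to 23 g, 6 per group) implanted ip with 1×10^5 L1210 cells; test compound given ip or orally once daily for 5 days starting 24 h later. ILS% from mean survival days vs untreated controls over 60 days; T.R. = O.D./ILS30.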

Data set [3] deals with Leukemia L1210. Put plainly: Activity against Leukemia L1210, oral, increase in life span of mice. The format is in vivo, female mice (BDF1 family). The conditions noted are these: for ED (maximum ILS) / ED30: Mus musculus, L1210, oral once a day for 5 successive days; for ED (maximum ILS): daily dosage giving maximum increase of life span, read-out: O.D. (optimum dosage); for ED30: daily dosage increasing average survival days by 30%, read-out: ILS30; for Survivors after 60 days / Max. ILS % / Therapeutic ratio TR: oral; for Survivors after 60 days: 6-membered group; for Max. ILS %: 60-day observation, versus control; for Therapeutic ratio TR: O.D./ILS30. In a few lines:
as §1

The subject of data set [4] is Ehrlich acites carcinoma. Put plainly: Growth-inhibiting effect against Ehrlich acites carcinoma. It is filed as in vivo, male mice. The conditions noted are these: 5 days; for response vs control in vivo at 25 mg/kg / response vs control in vivo at 100 mg/kg / response vs control in vivo at 3.2 mg/kg / response vs control in vivo at 12.5 mg/kg: Mus musculus, Ehrlich, 120 h; for response vs control in vivo at 25 mg/kg: 25 mg/kg/day ip; for response vs control in vivo at 100 mg/kg: 100 mg/kg/day ip; for response vs control in vivo at 3.2 mg/kg: 3.2 mg/kg/day ip; for response vs control in vivo at 12.5 mg/kg: 12.5 mg/kg/day ip. In a few lines:
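Male mice (groups of 6) implanted intraperitoneally with 1×10^7 Ehrlich ascites cells; compounds in 1% Nikkol HCO-60 given i.p. once daily for 5 days starting 24 hrs post-implantation. Total packed cell volume measured at day 7; T/C% vs untreated group, scored - (100-66), + (65-41), ++ (40-11), +++ (10-0).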

Here are results for eight compounds from US4593090A, “Novel nitrosourea compounds, method for preparing same, and pharmaceutical composition containing same” (Gogo Kimura, priority 1981, dated 1986).

Molecules are shown by their SMILES. Read-outs that look alike come from different tables or passages of the source.

For `CCCCO[C@H]1O[C@H](CO)[C@H](N(C(=O)N(CCCl)N=O)C(C)COC)[C@H](O)[C@H]1O` (stereo partly drawn) [Compound 132, 3-(1-methyl-2-methoxyethyl)-3-(n-butyl α-D-galactopyranose-4-yl)-1-(2-chloroethyl)-1-nitrosourea], the median lethal dose (LD50) (commonly the dose at which mortality reaches 50%) at 720 h in data set [1] was found to be 550 mg/kg. For the same compound, in data set [2], the ED (maximum ILS) was determined as 160 mg/kg, the ED30 amounted to 3.86 mg/kg, the “Survivors after 60 days” value is on record as 4/6 and the “Max. ILS %” value is > 420%. For the same compound, the “Therapeutic ratio TR” value in data set [2] is 41.5. For the same compound, in data set [3], the ED (maximum ILS) came to 200 mg/kg, the ED30 is 14 mg/kg, the “Survivors after 60 days” value was 3/6 and the “Max. ILS %” value is > 345%. The “Therapeutic ratio TR” value in data set [3] is 14.3. For the same compound, in data set [4] (read-out: Activity), the response vs control in vivo at 25 mg/kg was 0 to 10% and the response vs control in vivo at 100 mg/kg lay within 0 to 10%. In data set [4] (read-out: T/C %), the response vs control in vivo at 25 mg/kg amounted to 0% and the response vs control in vivo at 100 mg/kg came out at 0%.

Compound `CC(C)CN(C[C@H]1O[C@H](OCC2CCCO2)[C@@H](O)[C@@H](O)[C@@H]1O)C(=O)N(CCCl)N=O` (stereo partly drawn) [Compound 136, 3-(isobuty)-3-(tetrahydrofurfuryl α-D-mannopyranose-6-yl)-1-(2-chloroethyl)-1-nitrosourea] returned a median lethal dose (LD50) at 720 h in data set [1] of 600 mg/kg. Besides, in data set [2], the ED (maximum ILS) came out at 200 mg/kg, the ED30 came to 2.94 mg/kg, the “Survivors after 60 days” value is on record as 6/6 and the “Max. ILS %” value is > 700%. Further, in data set [2], the “Therapeutic ratio TR” value came to 68.0. In data set [3], the ED (maximum ILS) worked out at 240 mg/kg, the ED30 turned out to be 10.1 mg/kg, the “Survivors after 60 days” value is on record as 5/6 and the “Max. ILS %” value is listed as > 625%. The “Therapeutic ratio TR” value in data set [3] came out at 23.8. Besides, in data set [4] (read-out: Activity), the response vs control in vivo at 25 mg/kg lay within 0 to 10% and the response vs control in vivo at 100 mg/kg is 0 to 10%. Besides, in data set [4] (read-out: T/C %), the response vs control in vivo at 25 mg/kg was found to be 0% and the response vs control in vivo at 100 mg/kg was determined as 0%.

Take `CC(C)CO[C@H]1O[C@H](CN(CC2CCCO2)C(=O)N(CCCl)N=O)[C@@H](O)[C@@H](O)[C@@H]1O` (stereo partly drawn) [Compound 140, 3-tetrahydrofurfuryl-3-(isobutyl α-D-altropyranose-6-yl)-1-(2-chloroethyl)-1-nitrosourea]: the LD50 at 720 h in data set [1] came out at 540 mg/kg. For the same compound, in data set [2], the ED (maximum ILS) was 180 mg/kg, the ED30 was 2.8 mg/kg, the “Survivors after 60 days” value is on record as 6/6 and the “Max. ILS %” value is reported as > 700%. Moreover, the “Therapeutic ratio TR” value in data set [2] is reported as 64.3. Besides, in data set [3], the ED (maximum ILS) worked out at 220 mg/kg, the ED30 is 9.69 mg/kg, the “Survivors after 60 days” value was 5/6 and the “Max. ILS %” value is > 620%. The “Therapeutic ratio TR” value in data set [3] is 22.7. Also, in data set [4] (read-out: Activity), the response vs control in vivo at 25 mg/kg was 0 to 10% and the response vs control in vivo at 100 mg/kg was in the range of 0 to 10%. In data set [4] (read-out: T/C %), the response vs control in vivo at 25 mg/kg is 0% and the response vs control in vivo at 100 mg/kg is 0%.

In turn, `CCOCCN(C(=O)N(CCCl)N=O)[C@@H]1[C@@H](O)[C@@H](OC2CCCCC2)OC[C@H]1O` [Compound 149, 3-(2-ethoxyethyl)-3-(cyclohexyl α-D-xylopyranose-3-yl)-1-(2-chloroethyl)-1-nitrosourea] gave an LD50 at 720 h in data set [1] of 540 mg/kg. For the same compound, in data set [2], the ED (maximum ILS) is 170 mg/kg, the ED30 stood at 2.9 mg/kg, the “Survivors after 60 days” value is listed as 6/6 and the “Max. ILS %” value was > 700%. In data set [2], the “Therapeutic ratio TR” value is 58.6. In data set [3], the ED (maximum ILS) amounted to 210 mg/kg, the ED30 came out at 12.8 mg/kg, the “Survivors after 60 days” value is reported as 4/6 and the “Max. ILS %” value is recorded as > 440%. In data set [3], the “Therapeutic ratio TR” value is 16.4. Further, in data set [4] (read-out: Activity), the response vs control in vivo at 25 mg/kg lay in the range of 0 to 10% and the response vs control in vivo at 100 mg/kg lay within 0 to 10%. Besides, in data set [4] (read-out: T/C %), the response vs control in vivo at 25 mg/kg was 0% and the response vs control in vivo at 100 mg/kg was 0%.

`COCCCN(C[C@H]1O[C@H](OCC(C)C)[C@H](O)[C@H]1O)C(=O)N(CCCl)N=O` [Compound 164, 3-(3-methoxy-n-propyl)-3-(isobutyl α-D-xylofuranose-5-yl)-1-(2-chloroethyl)-1-nitrosourea] yielded a 50% lethal dose (LD50) at 720 h in data set [1] of 520 mg/kg. For the same compound, in data set [2], the ED (maximum ILS) stood at 160 mg/kg, the ED30 was 2.72 mg/kg, the “Survivors after 60 days” value was 6/6 and the “Max. ILS %” value is reported as > 700%. The “Therapeutic ratio TR” value in data set [2] amounted to 58.8. Further, in data set [3], the ED (maximum ILS) is 185 mg/kg, the ED30 was found to be 14.5 mg/kg, the “Survivors after 60 days” value is 5/6 and the “Max. ILS %” value is listed as > 620%. The “Therapeutic ratio TR” value in data set [3] was 12.8. In addition, in data set [4] (read-out: Activity), the response vs control in vivo at 25 mg/kg was 0 to 10% and the response vs control in vivo at 100 mg/kg was 0 to 10%. For the same compound, in data set [4] (read-out: T/C %), the response vs control in vivo at 25 mg/kg was found to be 0% and the response vs control in vivo at 100 mg/kg amounted to 0%.

Compound `CC(C)CN(C[C@H]1O[C@@H](OCC2CCCO2)[C@H](O)[C@@H]1O)C(=O)N(CCCl)N=O` (stereo partly drawn) [Compound 170, 3-isobutyl-3-(tetrahydrofurfuryl β-D-ribofuranose-5-yl)-1-(2-chloroethyl)-1-nitrosourea] showed a median lethal dose (LD50) at 720 h in data set [1] of 505 mg/kg. Besides, in data set [2], the ED (maximum ILS) is 160 mg/kg, the ED30 amounted to 3 mg/kg, the “Survivors after 60 days” value was 5/6 and the “Max. ILS %” value is reported as > 620%. For the same compound, the “Therapeutic ratio TR” value in data set [2] is given as 53.3. Besides, in data set [3], the ED (maximum ILS) was found to be 190 mg/kg, the ED30 was 13.4 mg/kg, the “Survivors after 60 days” value is given as 4/6 and the “Max. ILS %” value is listed as > 440%. The “Therapeutic ratio TR” value in data set [3] is recorded as 14.2. Further, in data set [4] (read-out: Activity), the response vs control in vivo at 25 mg/kg lay within 0 to 10% and the response vs control in vivo at 100 mg/kg lay within 0 to 10%. In data set [4] (read-out: T/C %), the response vs control in vivo at 25 mg/kg was 0% and the response vs control in vivo at 100 mg/kg was 0%.

`CC(CN1CCOCC1)O[C@@H]1O[C@H](CN(C(=O)N(CCCl)N=O)C(C)(C)C)[C@@H](O)[C@H](O)[C@H]1O` (stereo partly drawn) [Compound 200, 3-tert-butyl-3-(1-morpholinoisopropyl β-D-glucopyranose-6-yl)-1-(2-chloroethyl)-1-nitrosourea] gave an LD50 at 720 h in data set [1] of 480 mg/kg. Further, in data set [2], the ED (maximum ILS) came to 150 mg/kg, the ED30 came to 3.11 mg/kg, the “Survivors after 60 days” value is 6/6 and the “Max. ILS %” value is listed as > 700%. Besides, the “Therapeutic ratio TR” value in data set [2] is recorded as 48.2. Moreover, in data set [3], the ED (maximum ILS) was found to be 190 mg/kg, the ED30 was 10.1 mg/kg, the “Survivors after 60 days” value was 4/6 and the “Max. ILS %” value is > 460%. In addition, in data set [3], the “Therapeutic ratio TR” value is 18.9. Further, in data set [4] (read-out: Activity), the response vs control in vivo at 25 mg/kg lay within 0 to 10% and the response vs control in vivo at 100 mg/kg is 0 to 10%. Moreover, in data set [4] (read-out: T/C %), the response vs control in vivo at 25 mg/kg came to 0% and the response vs control in vivo at 100 mg/kg stood at 0%.

`O=NN(CCCl)C(=O)N[C@@H]1O[C@H](CO)[C@@H](O)[C@H](O)[C@H]1O` [GANU, 3-(β-D-glucopyranosyl)-1-(2-chloroethyl)-1-nitrosourea, reference compound] returned a 50% lethal dose (LD50) at 720 h in data set [1] of 35 mg/kg. Moreover, in data set [2], the ED (maximum ILS) was determined as 6.2 mg/kg, the ED30 was 0.45 mg/kg, the “Survivors after 60 days” value is 4/6 and the “Max. ILS %” value is recorded as > 425%. In addition, the “Therapeutic ratio TR” value in data set [2] is listed as 13.8. For the same compound, in data set [3], the ED (maximum ILS) turned out to be 6.35 mg/kg, the ED30 was 2.5 mg/kg, the “Survivors after 60 days” value is given as 0/6 and the “Max. ILS %” value turned out to be 94%. In data set [3], the “Therapeutic ratio TR” value stood at 2.54. Further, the “Activity (toxicity in words)” value in data set [4] (25.0 mg/kg/day ip) was “Toxic (6/6)”. In data set [4] (read-out: Activity), the response vs control in vivo at 3.2 mg/kg is 0 to 10% and the response vs control in vivo at 12.5 mg/kg lay within 0 to 10%. Moreover, in data set [4] (read-out: T/C %), the response vs control in vivo at 3.2 mg/kg was determined as 0% and the response vs control in vivo at 12.5 mg/kg was determined as 0%.
